Molecules are shown by their SMILES.

These results are taken from patent US20090104240A1, “Dual Drug Formulations For Implantable Medical Devices For Treatment of Vascular Diseases” (Abbott Cardiovascular Systems Inc., priority 2007, published 2009).

The test system of one data set is inflammation. The experiment in a line: effect of corticosteroid on inflammation. As to conditions: super high potency corticosteroid. The format is in vivo.
The test system of data set [1] is vessel endothelialization. Description: effect of corticosteroid on vessel endothelialization. The format is in vivo. The following applies: super high potency corticosteroid.

Turning to `CC1CC2C3CCC4=CC(=O)C=CC4(C)C3(F)C(=O)CC2(C)C1(O)C(=O)CCl` (centres unmarked) [clobetasone], in the data set with inflammation, the “effect with regard to inflammation” value is “beneficial effect with regard to inflammation”. In addition, the vessel endothelialization entry in data set [1] was “impairment of vessel endothelialization was observed”.
